According to ChEMBL document CHEMBL2016560, “Mannitol Bis-phosphate Based Inhibitors of Fructose 1,6-Bisphosphate Aldolases” (ACS Med Chem Lett, 2011):
Activity calls are given as the source filed them. The rule behind the calls is not given here.

Tests used:
[1] = biological target: T1, Fructose-bisphosphate aldolase, glycosomal (Trypanosoma brucei brucei, UniProt P07752); assay: Inhibition of His-tagged recombinant Trypanosoma brucei fructose bis-phosphate aldolase expressed in Escherichia coli using FBP as substrate after 5 to 15 mins
T1 sequence (P07752 whole entry): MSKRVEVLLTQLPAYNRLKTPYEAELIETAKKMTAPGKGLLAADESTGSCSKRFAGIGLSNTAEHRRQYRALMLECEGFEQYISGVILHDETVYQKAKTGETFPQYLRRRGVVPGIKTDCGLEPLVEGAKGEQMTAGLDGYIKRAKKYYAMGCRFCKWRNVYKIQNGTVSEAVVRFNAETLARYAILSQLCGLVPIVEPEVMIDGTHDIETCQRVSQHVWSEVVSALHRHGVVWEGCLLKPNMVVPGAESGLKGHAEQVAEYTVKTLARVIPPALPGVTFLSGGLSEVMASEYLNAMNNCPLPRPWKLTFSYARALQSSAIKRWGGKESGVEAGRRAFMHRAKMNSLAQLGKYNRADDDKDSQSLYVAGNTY

[2] = biological target: T2, Fructose-bisphosphate aldolase A (Oryctolagus cuniculus, UniProt P00883); assay: Inhibition of rabbit muscle FBA assessed as inhibition of FBP cleavage by spectrophotometry
T2 sequence (P00883 whole entry): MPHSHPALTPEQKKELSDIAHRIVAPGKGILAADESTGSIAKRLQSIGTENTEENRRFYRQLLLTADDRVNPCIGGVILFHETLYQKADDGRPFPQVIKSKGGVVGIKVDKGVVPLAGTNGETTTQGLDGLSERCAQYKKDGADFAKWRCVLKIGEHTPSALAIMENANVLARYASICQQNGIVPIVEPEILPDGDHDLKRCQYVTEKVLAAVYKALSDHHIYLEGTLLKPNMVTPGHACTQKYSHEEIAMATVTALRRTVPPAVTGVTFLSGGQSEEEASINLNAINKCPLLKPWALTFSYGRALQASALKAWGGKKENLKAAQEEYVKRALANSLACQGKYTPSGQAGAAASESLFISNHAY

[3] = biological target: T3, Fructose-bisphosphate aldolase, glycosomal (Trypanosoma brucei brucei) (UniProt P07752); assay: Competitive inhibition of His-tagged recombinant Trypanosoma brucei fructose bis-phosphate aldolase expressed in Escherichia coli by double-reciprocal plot analysis
T3 sequence (whole entry): T1 sequence (P07752 whole entry)

IC50 [1]	IC50 [2]	inhibition mode (competitive) [3]	Compound
15 µM	17 µM	Active	CCCCC[C@@](O)(COP(=O)(O)O)[C@@H](O)[C@H](O)[C@H](O)COP(=O)(O)O
2 µM	7.5 µM	Active	CO[C@H](COP(=O)(O)O)[C@@H](O)[C@H](O)[C@H](O)COP(=O)(O)O
31 µM	21 µM	Active	O=P(O)(O)OC[C@@H](O)[C@@H](O)[C@H](O)[C@@H](COP(=O)(O)O)OCCCc1ccccc1
51 µM	64 µM	Active	CCO[C@H](COP(=O)(O)O)[C@@H](O)[C@H](O)[C@H](O)COP(=O)(O)O
56 µM	137 µM	Active	O=P(O)(O)OC[C@@H](O)[C@@H](O)[C@H](O)[C@@](O)(CCCc1ccccc1)COP(=O)(O)O
10 µM	13 µM	–	O=C(COP(=O)(O)O)[C@@H](O)[C@H](O)[C@H](O)COP(=O)(O)O (mixture of isomers)
117 µM	157 µM	Active	CCCCCO[C@H](COP(=O)(O)O)[C@@H](O)[C@H](O)[C@H](O)COP(=O)(O)O
130 µM	244 µM	Active	CC[C@@](O)(COP(=O)(O)O)[C@@H](O)[C@H](O)[C@H](O)COP(=O)(O)O

Compound	IC50 [1]	IC50 [2]	inhibition mode (competitive) [3]
O=P(O)(O)OC[C@@H](O)[C@@H](O)[C@H](O)[C@H](O)COP(=O)(O)O	9.4 µM	8 µM	–
